Values joined by “and” are separate entries in the source; they are usually repeats but may differ in a detail not shown here. Equal values may be shown once.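 Test compounds were applied to cells in 96-well plates for 48 hours at 5 doses. GI50 = concentration required for 50% inhibition of growth. Definition used: TGI = concentration required for complete inhibition of growth.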

Among the data in PubChem BioAssay (NCI) are TGI and GI50 values, retold here.

Test in all cases: NCI tumour cell line growth inhibition, 48 h
Test [1] deals with UACC-257 melanoma.
Test [2] relates to SK-OV-3 ovarian.
Test [3] relates to ACHN renal.
Test [4] deals with SW-620 colon.
Test [5] concerns T-47D breast.
Test [6] concerns HOP-92 NSCLC.
In test [7] the test system is COLO 205 colon.
The subject of test [8] is TK-10 renal.
For test [9], the system named is U251 CNS.
For test [10], the system named is MALME-3M melanoma.

`O=c1cc(-c2ccc(F)cc2)[nH]c2ncccc12`: the TGI in test [1], in test [2], in [3], in test [4], in test [5] and in test [6] was over 100 µM throughout. Moreover, the TGI in test [7] was 60.3 µM; in test [8], over 100 µM; in test [9] it was over 100 µM; in test [10] it was over 100 µM. Further, the GI50 in test [9] is 48.2 µM.

With `Cn1ncc(Cl)c1-c1cc(C(=O)N[C@H](CN)Cc2cccc(F)c2)sc1Cl`, the GI50 in test [1] is 1.44 µM and 2.88 µM; in test [2] it was 0.242 µM and 0.34 µM; in test [3], 2.57 µM and 2.76 µM; in test [4] it was 2.16 µM and 7.33 µM; in [5] it was 0.0272 µM and 0.0492 µM; in test [6], 0.338 µM and 0.519 µM. Further, the GI50 in test [7] was 0.546 µM and 1.25 µM; in test [8], 0.531 µM and 1.73 µM; in test [9] it was 0.346 µM and 0.742 µM; in test [10], 1.08 µM and 0.969 µM. Also, the TGI was 3.71 µM and 9.91 µM in test [1]; 4.58 µM and 7.05 µM in test [2]; > 10 µM and 15.4 µM in test [3]; > 10 µM and 21 µM in test [4]; 1.48 µM in test [5]; 2.77 µM and 4.21 µM in [6]. Also, the TGI in test [7] is 1.84 µM and 5.21 µM; in test [8], 5.76 µM and 14.3 µM; in test [9], > 4.58 µM and 12.8 µM; in [10] it was 2.61 µM and 2.99 µM.

Regarding `COc1cnc2c(c1)C(=O)c1c-2n(CCCN2CCCC2)c(=O)c2cc([N+](=O)[O-])ccc12`, the GI50 is 0.176 µM in [1]; 0.0336 µM in test [2]; under 0.01 µM in test [3]; under 0.01 µM in test [4]; 0.0179 µM in test [5]; 0.554 µM in test [6]. For the same compound, the GI50 in [7] is 0.0354 µM; in test [8], 0.373 µM; in test [9], 0.0113 µM; in test [10], 0.0558 µM. The TGI worked out at 11 µM in test [1]; 0.843 µM in test [2]; 0.132 µM in test [3]; 1.34 µM in test [4]; 12.8 µM in test [5]; 15.6 µM in test [6]. For the same compound, the TGI came to 13.8 µM in test [7], 14.1 µM in [8], 1.03 µM in test [9] and 1.15 µM in [10].

On to `COc1ccc2c(c1)CCC1C2CC[C@@]2(C)C1CC[C@@H]2NC(=O)Cc1ccc(O)c(O)c1` (stereo partly specified), for which the GI50 in [1] was 17 µM; in test [2], 16.7 µM; in [3] it was 6.01 µM; in test [4], 6.41 µM; in test [5], 6.91 µM; in test [6], 14.2 µM. In addition, the GI50 in test [7] is 3.34 µM; in test [8], 8.86 µM; in test [9], 4.94 µM; in test [10], 9.13 µM. Also, the TGI was found to be 30.8 µM in [1]; 33.4 µM in test [2]; 18.9 µM in test [3]; 25 µM in test [4]; 72.8 µM in test [5]; 30.8 µM in test [6]. Also, the TGI in [7] was 12.5 µM; in test [8] it was 22.1 µM; in test [9], 18.8 µM; in test [10], 41 µM.

As to `COc1cc2nc(N3CCCN(C)CC3)nc(NC3CCN(Cc4ccccc4)CC3)c2cc1OC`, the GI50 is 1.74 µM in test [1]; 3.19 µM in [2]; 2.25 µM in [3]; 2.96 µM in test [4]; 2.53 µM in test [5]; 4.12 µM in test [6]. In addition, the GI50 is 1.84 µM in test [7], 1.88 µM in [8], 2.22 µM in test [9] and 1.87 µM in [10]. The TGI was 3.36 µM in test [1]; 10.8 µM in test [2]; 5.13 µM in test [3]; 9.64 µM in [4]; 6.25 µM in test [5]; 13.6 µM in [6]. Further, the TGI in test [7] came out at 3.51 µM; in test [8], 4.02 µM; in [9], 5.96 µM; in [10] it was 3.37 µM.

Regarding `O=C(O)/C=C/c1ccc(Oc2ccccc2C(=O)O)o1`, the TGI in [1], in test [2], in test [3], in test [4], in test [5] and in test [6] was over 10 µM each time. Moreover, the TGI in test [7], in [8], in test [9] and in test [10] was over 10 µM throughout.

On to `Cc1ccc(S(=O)(=O)ON2C(=O)c3cccc4cc([N+](=O)[O-])cc(c34)C2=O)cc1`, for which the TGI in test [1], in test [2], in test [3], in test [4], in test [5] and in [6] was over 100 µM in each case. In addition, the TGI in [7], in test [8], in [9] and in test [10] was over 100 µM throughout.

For the compound `Fc1cccc(COc2ccc(Nc3ncnc4onc(-c5ccccc5)c34)cc2)c1`, the GI50 in test [1] is 37.5 µM; in [2] it was 0.459 µM; in [3], 3.38 µM; in test [4], 0.139 µM; in [5] it was 0.218 µM; in test [6], 0.264 µM. In addition, the GI50 in test [7] is 0.202 µM; in test [8], 1.21 µM; in [9] it was 0.215 µM; in test [10], 0.206 µM. Moreover, the TGI was over 100 µM in test [1]; over 100 µM in test [2]; over 100 µM in test [3]; over 100 µM in [4]; over 100 µM in test [5]; 62.8 µM in test [6]. Besides, the TGI in [7] was 0.787 µM; in test [8] it was 36.1 µM; in [9], over 86.8 µM; in test [10] it was over 100 µM.
